Literature values, collected in patent publication US20040096420A1, “Compositions and methods for treating baldness” (priority 2000, published 2004).

Test system: genetic hair loss
Conditions: dosages from 75 to 100 mg per day; Rushton and Ramsay, 1992; Rushton et al. 1991

## CC(=O)S[C@@H]1CC2=CC(=O)CC[C@]2(C)[C@H]2CC[C@@]3(C)[C@@H](CC[C@@]34CCC(=O)O4)[C@H]12 [spironolactone]
  benefit in hair loss: some benefit
